# Test results reported in patent publication US20230256094A1, “CANCER RADIOSENSITIZATION BY IN SITU FORMATION OF GOLD NANOPARTICLES AND/OR GOLD NANOCLUSTERS” (BOARD OF REGENTS, THE UNIVERSITY OF TEXAS SYSTEM, priority 2020, published 2023).
# Entries after “also recorded” stand apart in the source; their conditions may differ.
# Columns and labels:
# [1] = tested on: pancreatic cancer cells (LTPA) vs pancreatic non-cancerous cells (MS1); assay: Confocal fluorescence imaging of intracellular GNC formation, cancerous vs non-cancerous cells; type: cell-based
# Description: Hoechst 33342 stain was used for nuclear contrast. Red channel was used for detection of GNCs with 610 nm emission and 561 nm laser excitation. Scale bars are 25 μm.
# Our initial evaluation of intracellular gold nanocluster formation was performed with pancreatic cancer cells (LTPA) and pancreatic non-cancerous cells (MS1) (FIG. 6A-6B). […] Live cell nuclear stain, Hoechst 33342, was used to define the location of nuclei.
# Radiosensitization due to intracellular GNC formation (i.e., delivery of Au^3+) was compared between cancerous and non-cancerous cells using a standard clonal assay. For radiosensitization, cells were incubated with 0.1 mM of buffered chloroauric acid in cell culture media for 24 hours. Then, the cells were lifted and plated in 30 mm culture dishes at optimized cell densities for observation of colony formation following irradiation with X-rays at dosages ranging from 0 to 8 Gy (XRAD SmART). […] The radiosensitization results correlated well with the fluorescence images showing greater production of GNCs by cancerous cells (FIG. 6A-6B). For LTPA pancreatic cancer cells the surviving fraction values decreased by a factor of 2.3x and 3.5x for radiation of 4 Gy and 6 Gy, respectively, in cells treated with gold atoms compared to untreated control (FIG. 6B). […]
# NIH3T3 cells = assay: Confocal fluorescence imaging of intracellular GNC formation; type: cell-based, mouse; settings: 1 mM in cell culture media, 24 hours; 561 nm excitation, 610 nm emission
# Description: FIG. 3A presents fluorescence images of control NIH3T3 cells (left) and cells treated with Au^3+ (right). Both control and treated cells generated fluorescence with nuclear staining by Hoechst 33342. Fluorescent signal in the treated cells was associated with intracellular formation of gold nanoclusters (GNCs). Scale bars 20 μm.
# Our initial evaluation of radiosensitization via intracellular GNP formation was performed with 3T3 mouse fibroblast cells. […] Radiosensitization with intracellular GNC formation (i.e., delivery of Au^3+) was compared with pre-fabricated albumin-coated GNCs (Albumin-GNC) prepared according to work by Xie^46 and control cells without treatment via MTS assay (FIG. 3B).
# thyroid cancer = assay: gamma H2AX foci after x-ray irradiation, thyroid cancer; type: cell-based; settings: 24 hours after x-ray irradiation, 0 or 8 Gy, 0.20 mM
# From the text: Treatments are in full cell media.
# PANC1 pancreatic cancer = assay: JC-1 assay of mitochondrial polarization after irradiation; type: cell-based, human; settings: 24 hr post-irradiation, 8 Gy
# Description: FIG. 22 reports on a mechanistic study of radiosensitization quantifying mitochondrial depolarization through JC-1 assay measured at 0, 1, and 24 hours, resulting from 24 hour, 0.20 mM Au^3+ treatments (lower three) compared against non-treated (upper three) combined with either 0 Gy or 8 Gy x-ray irradiation. Treatments are in full cell media to PANC1 pancreatic cancer.
# The JC-1 assay measures the charge potential of the mitochondria of cells through the fluorometric ratio of the JC-1 dye (ThermoFisher Scientific, Waltham, Mass.). JC-1 is a cationic carbocyanine dye that accumulates in mitochondria. The dye exists as a monomer at low concentrations and yields green fluorescence, similar to fluorescein. […] These characteristics make JC-1 a sensitive marker for mitochondrial membrane potential. In other words, mitochondrial depolarization is indicated by a decrease in the red/green fluorescence intensity ratio. Mitochondrial depolarization is an indicator of reduced cell viability.
# Further, we characterized the mechanisms of radiosensitization through (i) quantification of double stranded DNA breaks via y-H2AX Foci (FIG. 21), (ii) mitochondrial polarization via JC-1 assay (FIG. 22), (iii) NADP total (FIG. 23) and NADP:NADPH ratio (FIG. 24) via NADP(H) assay, and (iv) peroxidation production via TBARS assay (FIG. 25).
# [2] = tested on: PANC1 pancreatic cancer cells; assay: Longitudinal live cell confocal fluorescence imaging of the intracellular distribution of GNCs; type: cell-based, human; settings: 0.20 mM, 20 hr time period
# From the text: 2.1. Intracellular distribution and time dependence of gold nanocluster (GNC) in situ formation. […] Then, we used longitudinal live cell confocal fluorescence imaging to observe time dependence of the intracellular distribution of GNCs formed through biomineralization of Au^3+.
# [3] = tested on: pancreatic noncancerous cells (HPDE); assay: Confocal fluorescence imaging of in situ GNC synthesis; type: cell-based; settings: 1 mM, 24 hours, 561 nm excitation, 610 nm emission
# Description: FIG. 4 presents fluorescence confocal images of non-cancerous (HPDE) and cancerous (MIAPaCa2) pancreatic cells treated with either 1 mM of Au^3+ gold ions or premade albumin-GNCs at 1 mM Au^0 for 24 hours. (From left to right) Cells: untreated; treated with albumin-GNCs; treated with Au^3+ gold ions. […] The strong red fluorescence in cancer cells indicated intracellular synthesis of GNCs from gold ions. Scale bars are 25 μm.
# We compared in situ synthesis of GNCs by pancreatic cancer cells (MIAPACA2) and pancreatic noncancerous cells (HPDE) (FIG. 4). Confocal fluorescence images were obtained using a Leica TCS SP8 confocal microscope with 561 nm excitation and 610 nm emission optimized for detection of GNCs.
# [4] = tested on: cancerous (Mia-PaCa-2 and PANC1) vs normal (HPDE) pancreatic cells; assay: Fluorescent confocal microscopy of GNC biosynthesis, cancerous vs normal cells; type: cell-based; settings: 1.00 mM, 24 hr (FIG. 8B)
# From the text: Hoechst nuclear stain is the only imaging source in the untreated column and the primary imaging source in the albumin-GNC column and the non-cancer Au^3+ panel. Cells are live during imaging. Scale bars are 10 μm.
# FIG. 8B quantifies GNC channel pixel intensity of the samples in each of the rows of FIG. 8A.
# 2.2. Comparisons of efficiency of the GNC in situ synthesis by cancer and normal cells. We compared GNC biosynthesis between normal (HPDE) and cancerous (Mia-PaCa-2 and PANC1) pancreatic cells using fluorescent confocal microscopy (FIG. 8A). In addition, we compared the efficiency of the intracellular synthesis with extracellular uptake of prefabricated albumin coated GNCs (FIG. 8A). […] Further, there was 12.20- and 7.69-times greater fluorescence due to in situ synthesis relative to cellular uptake of prefabricated GNCs in PANC1 and Mia-PaCa-2 cells, respectively (FIG. 8B).
smiles,measurement,setting,value
"[Au+3].[Cl-].[Cl-].[Cl-].[Cl-].[H+] [Au^3+, chloroauric acid]",GNC formation in cancerous cells as compared to non-cancerous cells,[1],striking increase in GNC formation
same,intracellular formation of GNCs (confocal fluorescence),NIH3T3 cells,uniform formation of GNCs
same,radiosensitization via induced double stranded DNA breaks (gamma H2AX foci),thyroid cancer,evidence of radiosensitization via induced double stranded DNA breaks
same,recovery of mitochondrial depolarization,PANC1 pancreatic cancer,no recovery in the mitochondrial depolarization
same,subcellular region of greatest GNC formation,[2],nucleolus had the highest rate of GNC formation; also recorded: greatest in the nucleolus
same,GNC fluorescence / GNC formation,[3],only sparsely seen
same,greater fluorescence due to GNC biomineralization in cancerous cells than in non-cancerous HPDE,[4],~2 fold
